In patent publication US5929070A (Eli Lilly and Company, priority 1997, dated 1999):

Key:
5-HT1C receptor = experiment: pharmacological studies, 5-HT1C receptor activity
migraine pain = experiment: Utility tests for migraine analgesic activity (mouse writhing, acetic acid-induced writhing, protein extravasation and related tests); format: in vivo, mice; rats; guinea pigs; rabbits; details: summary statement for the utility tests, no values given
[1] = test system: muscarinic cholinergic receptor; experiment: pharmacological studies, muscarinic cholinergic receptor activity

Cc1cc2c(s1)Nc1ccccc1N=C2N1CCN(C)CC1 [olanzapine, 2-methyl-4-(4-methyl-1-piperazinyl)-10H-thieno[2,3-b][1,5]benzodiazepine]
activity at the 5-HT1C receptor (5-HT1C receptor): active | migraine pain analgesic effect (migraine pain): can provide a significant migraine pain analgesic effect | muscarinic cholinergic receptor activity [1]: has muscarinic cholinergic receptor activity
